Assay [1] concerns the target T1, CD38 NAD+ hydrolase activity in NH7-dCas9 cells (Jurkat clone) (Homo sapiens, UniProt P28907).
T1 construct: The assay utilized CD38 expressing NH7-dCas9 cells (Jurkat clone); host or cells: NH7-dCas9 cells (Jurkat clone)
T1 sequence (P28907 1-300): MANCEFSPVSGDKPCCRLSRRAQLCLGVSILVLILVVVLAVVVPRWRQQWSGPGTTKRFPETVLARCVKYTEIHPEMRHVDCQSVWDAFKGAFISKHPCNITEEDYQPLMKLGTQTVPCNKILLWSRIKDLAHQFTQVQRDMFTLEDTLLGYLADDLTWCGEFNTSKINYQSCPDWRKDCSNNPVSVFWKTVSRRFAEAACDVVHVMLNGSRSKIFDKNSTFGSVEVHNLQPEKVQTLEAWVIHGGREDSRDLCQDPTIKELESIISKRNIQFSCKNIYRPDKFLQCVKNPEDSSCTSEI
In words: Fluorescence-based NAD+ hydrolase activity assay with human T cell line NH7-dCas9 cells-Jurkat clone (Assay 1). Conditions: read-out: Assay 1 Arithmetic mean IC50. How it is done:
For the modified assay, the performance validation criteria of the assay as a High Throughput Screening (HTS): Z-factor within the plate was greater than 0.89 (optimal HTS z-factor >0.5) and the Intra-plate, inter-plate and day to day variability (CV) was less than 20%.
NAD+ hydrolase activity of a human T cell line treated with test compounds was measured using a fluorescence-based assay. NH7-dCas9 cells (Jurkat clone) were provided by the Weissman Lab (UCSF 1700 4th St., Byers Hall, Room 403B, San Francisco, CA 94158-2330). Briefly, cells were centrifuged, resuspended in 44 μl PBS/10^6 cells and plated in a 96 well black plate (CORNING) at a density of 1×10^6 per well.
(§1) Each test compound was received in a powder state and dissolved in DMSO as a 25 mM stock solution. Each test compound was serially diluted in order to generate a dose-response curve. The dilution series of each test compound in DMSO was prepared at 50 times the concentrations to be assayed. Each test compound was diluted to generate a 5-fold dilution series of 8 concentrations from 20 μM to 0.256 nM in order to assay 8 final concentrations ranging from 400 nM to 25.6 pM. One μl of the 50× concentration compound series was added to each well of the plate containing 1×10^6 cells in PBS.
Each plate had the following intra plate controls: 3 wells containing cells treated with vehicle only (DMSO), 3 wells of cells treated with the reference compound 78c at a final concentration of 50 nM and 2 wells containing only PBS (used as a background value).
The reaction was started by adding nicotinamide 1,N^6-etheno-adenine dinucleotide (Sigma Aldrich) to reach a final concentration of 80 µM. The samples were excited at 321-15 nm, and the emission of fluorescence was measured at 410-20 nm at 37° C. every minute for 1 hr in a Clariostar® microplate reader (BMG LABTECH). NAD+ hydrolase activity was calculated as the slope of the linear portion of the fluorescence-time curve using the MARS data analysis software (BMG LABTECH). The data were uploaded in the Collaborative Drug Design (CDD) Software and for each compound the IC50 was calculated by the software. Each compound was tested in 3 independent experiments on 3 separate days to establish the reproducibility of the results. For each plate, the z-factor was also calculated as a plate quality using the CDD software.

The target in assay [2] is T2, recombinant human CD38 Protein (Homo sapiens, UniProt P28907).
T2 construct: purchased R&D System
T2 sequence (P28907 1-300): T1 sequence (P28907 1-300)
In words: Fluorescence-based NAD+ cyclase activity assay with human recombinant CD38 protein (Assay 2). The class given is biochemical. To be noted: read-out: Assay 2 Arithmetic mean IC50. How it is done:
This protocol was modified from the de Oliveira et al., 2018 reference, supra.
NAD+ cyclase activity of the human recombinant CD38 protein treated with test compounds was measured using a fluorescence-based assay. Briefly, recombinant human CD38 Protein (R&D System) was resuspended in 44 μl/well of Sucrose-Tris Buffer (Sucrose 0.25 M, Tris pH 7.4 40 mM) and plated in a 96-well black plate (CORNING) at a density of 125 ng/well.
as §1, with “100” for “20”, “32” for “0.256”, “2 μM” for “400 nM”, “0.64 nM.” for “25.6 pM.”, “125 ng of protein” for “1×10^6 cells”, “Sucrose-Tris buffer.” for “PBS.”
The reaction was started adding nicotinamide guanine dinucleotide (NGD+) (Sigma Aldrich) to reach a final concentration of 150 µM. The samples were excited at 337-15 nm, and the emission of fluorescence was measured at 442-20 nm at 37° C. every minute for 1 hr in a Clariostar microplate reader (BMG LABTECH). NAD+ cyclase activity was calculated as the slope of the linear portion of the fluorescence-time curve using the MARS data analysis software (BMG LABTECH). The data were uploaded in the Collaborative Drug Design (CDD) Software, and for each compound the IC50 was calculated by the software. For each plate, the z-factor was also calculated as a plate quality using the CDD software.

As a reminder, the IC50 is the concentration that inhibits the measured activity by half. For the compound `CNC(=O)c1ccc(NC(=O)c2cccc(-n3ccnc3)n2)cn1` [Compound 2], the IC50 is under 0.001 µM in assay [1] and 0.001 to 0.05 µM in assay [2].
Take `NC(=O)c1ccc(NC(=O)c2cccc(-n3ccnc3)n2)cn1` [Compound 3]: the IC50 was under 0.001 µM in assay [1] and 0.001 to 0.05 µM in assay [2].
The corresponding values for `Cc1cc(NC(=O)c2cccc(-n3ccnc3)n2)cc(C)n1` [Compound 7] are under 0.001 µM and 1 to 10 µM.
`O=C(Nc1ccnc(F)c1)c1cccc(-n2ccnc2)n1` [Compound 8]: the half-inhibitory concentration (IC50) in assay [1] is under 0.001 µM; in assay [2], 0.051 to 1 µM.
`O=C(Nc1ccc(C(F)(F)F)nc1)c1cccc(-n2ccnc2)n1` [Compound 9]: the IC50 in assay [1] lay within 0.001 to 0.05 µM; in assay [2], 0.051 to 1 µM.
On to `Cc1cc(NC(=O)c2cccc(-n3ccnc3)n2)ccn1` [Compound 11], for which the figures for the half-maximal inhibitory concentration (IC50) in assay [1] and in assay [2] were 0.001 to 0.05 µM and 0.051 to 1 µM, respectively.
In the case of `COc1cc(NC(=O)c2cccc(-n3ccnc3)n2)ccn1` [Compound 12], the 50% inhibitory concentration (IC50) is 0.001 to 0.05 µM in assay [1] and 0.051 to 1 µM in assay [2].
`O=C(Nc1ccncc1)c1cccc(-n2ccnc2)n1` [Compound 13]: the values for the IC50 in assay [1] and in assay [2] were 0.001 to 0.05 µM and 0.051 to 1 µM, respectively.
Take `Cc1ccc(NC(=O)c2cccc(-n3ccnc3)n2)cn1` [Compound 14]: the IC50 in assay [1] lay within 0.001 to 0.05 µM; in assay [2] it was 1 to 10 µM.
On to `CC(=O)N(C)c1ccc(NC(=O)c2cccc(-n3ccnc3)n2)cn1` [Compound 15], for which the IC50 in assay [1] fell in the range of 0.001 to 0.05 µM; in assay [2], 1 to 10 µM.
The corresponding values for `CC(=O)Nc1ccc(NC(=O)c2cccc(-n3ccnc3)n2)cn1` [Compound 16] are 0.001 to 0.05 µM and 0.051 to 1 µM.
As to `COc1ccc(NC(=O)c2cccc(-n3ccnc3)n2)cn1` [Compound 18], the values for the half-inhibitory concentration (IC50) in assay [1] and in assay [2] were 0.001 to 0.05 µM and 1 to 10 µM, respectively.
Regarding `O=C(Nc1cccnc1)c1cccc(-n2ccnc2)n1` [Compound 20], the half-inhibitory concentration (IC50) in assay [1] fell in the range of 0.001 to 0.05 µM; in assay [2], 1 to 10 µM.
Take `O=C(Nc1ccc(F)nc1)c1cccc(-n2ccnc2)n1` [Compound 22]: the 50% inhibitory concentration (IC50) in assay [1] was 0.001 to 0.05 µM; in assay [2] it was 1 to 10 µM.
As to `O=C(Nc1ccncn1)c1cccc(-n2ccnc2)n1` [Compound 24], the IC50 in assay [1] fell in the range of 0.001 to 0.05 µM; in assay [2] it was 1 to 10 µM.
The corresponding values for `COC(=O)c1ccc(NC(=O)c2cccc(-n3ccnc3)n2)cn1` [Compound 27] are 0.001 to 0.05 µM and 0.051 to 1 µM.
For the compound `O=C(Nc1ccnc(C(F)(F)F)c1)c1cccc(-n2ccnc2)n1` [Compound 28], the IC50 is under 0.001 µM in assay [1] and 1 to 10 µM in assay [2].
As for `O=C(Nc1ccnc(C(F)(F)F)c1)c1cc(OCc2ccccc2)cc(-n2ccnc2)n1` [Compound 29, 4-(benzyloxy)-6-(1H-imidazol-1-yl)-N-[2-(trifluoromethyl)pyridin-4-yl]pyridine-2-carboxamide], the half-maximal inhibitory concentration (IC50) in assay [1] was under 0.001 µM; in assay [2] it was 0.051 to 1 µM.
In the same order, the values of `O=C(Nc1ccnc(C(F)(F)F)c1)c1cc(OCC2CCOCC2)cc(-n2ccnc2)n1` [Compound 30, 6-(1H-imidazol-1-yl)-4-((tetrahydro-2H-pyran-4-yl)methoxy)-N-(2-(trifluoromethyl)pyridin-4-yl)picolinamide] are under 0.001 µM and 0.051 to 1 µM.
Turning to `COCCOc1cc(C(=O)Nc2ccnc(C(F)(F)F)c2)nc(-n2ccnc2)c1` [Compound 31, 6-(1H-imidazol-1-yl)-4-(2-methoxyethoxy)-N-(2-(trifluoromethyl)pyridin-4-yl)picolinamide], the half-maximal inhibitory concentration (IC50) in assay [1] was under 0.001 µM; in assay [2] it was 0.051 to 1 µM.
In the same order, the values of `O=C(Nc1ccnc(C(F)(F)F)c1)c1cc(OC2CC2)cc(-n2ccnc2)n1` [Compound 32, 4-cyclopropoxy-6-(1H-imidazol-1-yl)-N-(2-(trifluoromethyl)pyridin-4-yl)picolinamide] are under 0.001 µM and 0.051 to 1 µM.
In the same order, the values of `CN(C)CCOc1cc(C(=O)Nc2ccnc(C(F)(F)F)c2)nc(-n2ccnc2)c1` [Compound 33] are under 0.001 µM and 0.051 to 1 µM.
For the compound `CC1(Oc2cc(C(=O)Nc3ccnc(C(F)(F)F)c3)nc(-n3ccnc3)c2)COC1` [Compound 34, 6-(1H-imidazol-1-yl)-4-((3-methyloxetan-3-yl)oxy)-N-(2-(trifluoromethyl)pyridin-4-yl)picolinamide], the IC50 in assay [2] fell in the range of 0.051 to 1 µM.
On to `COc1cc(C(=O)Nc2ccnc(C(F)(F)F)c2)nc(-n2ccnc2)c1` [Compound 35, 6-(1H-imidazol-1-yl)-4-methoxy-N-(2-(trifluoromethyl)pyridin-4-yl)picolinamide], for which the IC50 in assay [1] is under 0.001 µM; in assay [2], 0.051 to 1 µM.
For `COc1cc(C(=O)Nc2cccnc2)nc(-n2ccnc2)c1` [Compound 36], the figures for the IC50 in assay [1] and in assay [2] were 0.001 to 0.05 µM and 0.051 to 1 µM, respectively.
The corresponding values for `COc1cc(C(=O)Nc2ccnc(C(F)(F)F)c2)nc(-n2ccnc2)n1` [Compound 37, 2-(1H-imidazol-1-yl)-6-methoxy-N-(2-(trifluoromethyl)pyridin-4-yl)pyrimidine-4-carboxamide] are under 0.001 µM and 0.051 to 1 µM.
In the same order, the values of `CCOc1cc(C(=O)Nc2ccnc(C(F)(F)F)c2)nc(-n2ccnc2)n1` [Compound 38] are under 0.001 µM and 0.051 to 1 µM.
In the same order, the values of `COCCOc1cc(C(=O)Nc2ccnc(C(F)(F)F)c2)nc(-n2ccnc2)n1` [Compound 39, 2-(1H-imidazol-1-yl)-6-(2-methoxyethoxy)-N-(2-(trifluoromethyl)pyridin-4-yl)pyrimidine-4-carboxamide] are under 0.001 µM and 0.001 to 0.05 µM.
For `O=C(Nc1ccnc(C(F)(F)F)c1)c1cc(OC2CC2)nc(-n2ccnc2)n1` [Compound 40], in assay [2], the IC50 was in the range of 0.051 to 1 µM.
Take `Cn1cncc1-c1cccc(C(=O)Nc2cccnc2)n1` [Compound 42, 6-(1-methyl-1H-imidazol-5-yl)-N-(pyridin-3-yl)picolinamide]: the IC50 in assay [1] was in the range of 0.001 to 0.05 µM; in assay [2], 1 to 10 µM.
As for `Cn1cncc1-c1cccc(C(=O)Nc2ccc(C(F)(F)F)nc2)n1` [Compound 43], the IC50 in assay [1] was under 0.001 µM; in assay [2], 0.051 to 1 µM.
As for `Cc1cc(C(=O)Nc2ccncc2)nc(-c2nccn2C)c1` [Compound 45], the results for the IC50 in assay [1] and in assay [2] were under 0.001 µM and 0.051 to 1 µM, respectively.
On to `Cn1ccnc1-c1cccc(C(=O)Nc2ccc(C(F)(F)F)nc2)n1` [Compound 47], for which the half-maximal inhibitory concentration (IC50) in assay [1] is under 0.001 µM; in assay [2], 0.051 to 1 µM.
In the same order, the values of `Cn1ccnc1-c1cccc(C(=O)Nc2cccnc2)n1` [Compound 48] are 0.001 to 0.05 µM and 1 to 10 µM.
Consider `O=C(Nc1ccnc(C(F)(F)F)c1)c1cc(C2CC2)nc(-n2ccnc2)n1` [Compound 51, 6-cyclopropyl-2-(1H-imidazol-1-yl)-N-(2-(trifluoromethyl)pyridin-4-yl)pyrimidine-4-carboxamide], for which, in assay [2], the IC50 is 0.051 to 1 µM.
